Experiments:
[1] = system: endometrial stromal cells; assay: Cytotoxic effect on immortalized non-cancer endometrial stromal cells; format: cell-based
[2] = molecular target: T1, CYP3A4 (Homo sapiens, UniProt P08684); assay: Cytochrome P450 inhibition, CYP3A4; format: in vitro ADME; conditions: probe midazolam (2.5 µM), human liver microsomes, observed only at 25 μM
T1 construct: from tissue; host or cells: human liver microsomes
Procedure: (§1) This provided a dose of 2 mg free base material/kg when Cytochrome p450 inhibition (5 isoform iC50 administered iv in a 5 mL/kg dosing volume. determination) mouse terminal ip pK study ADME-Tox Cytochrome P450 inhibition of Compound MC2884 was given ip at a dose of 2 mg/kg MC2884 using human liver microsomes as an estimation to a group of 24 normally fed male CD1 mice in a 10 mL/ of in vitro metabolism. kg injection volume. Terminal blood samples (> 230 μL) MC2884 (0.1 μM–25 μM) was incubated with were taken under CO2 from groups of 3 mice at each of 8 human liver microsomes and NADPH in the presence time-points post dose (0.083, 0.25, 0.5, 1, 2, 4, 8 and 24 h) of a cytochrome P450 isoform-specific probe substrate. and placed into heparinized tubes. […]
(§2) All samples were stored at −20° C measuring the formation of a fluorescent metabolite. […]
(§3) Cyp2C19 inhibition (0.1 mg/mL) and NADPH (1 mM) in the presence of the probe substrate midazolam (2.5 μM) for 5 min at Six test compound samples at concentrations 37° C. […] For the CYP1A incubations, the reactions microsomes (0.5 mg/mL) and NADPH (1 mM) in the were terminated by methanol, and the formation of the presence of the probe substrate mephenytoin (25 μM) metabolite, resorufin, was monitored by fluorescence for 60 min at 37° C. […]

[3] = molecular target: T2, CYP2C19 (Homo sapiens, UniProt P33261); assay: Cytochrome P450 inhibition, CYP2C19; format: in vitro ADME; conditions: human liver microsomes, probe mephenytoin
T2 construct: from tissue; host or cells: human liver microsomes
T2 sequence (P33261 whole entry): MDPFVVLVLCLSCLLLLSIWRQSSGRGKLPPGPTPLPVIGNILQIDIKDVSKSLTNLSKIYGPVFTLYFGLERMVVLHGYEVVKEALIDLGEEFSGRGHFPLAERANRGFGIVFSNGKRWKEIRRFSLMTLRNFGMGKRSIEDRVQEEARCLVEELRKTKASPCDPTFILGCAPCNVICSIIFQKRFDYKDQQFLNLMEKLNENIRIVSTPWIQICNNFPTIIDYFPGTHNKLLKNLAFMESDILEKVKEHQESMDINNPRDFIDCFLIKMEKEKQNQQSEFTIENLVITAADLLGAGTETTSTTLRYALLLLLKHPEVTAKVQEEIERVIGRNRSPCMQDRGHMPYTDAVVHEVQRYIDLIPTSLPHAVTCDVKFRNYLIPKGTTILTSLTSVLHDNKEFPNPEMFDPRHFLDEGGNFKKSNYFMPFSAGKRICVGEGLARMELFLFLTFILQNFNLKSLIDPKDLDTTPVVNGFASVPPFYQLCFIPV
Procedure: as §1, §2, §3

[4] = system: HCT116 colon carcinoma; assay: Immunohistochemistry and TUNEL of HCT116 xenograft tumors; format: in vivo, mice; conditions: end of treatment, 10 mg/Kg
Procedure: HCT116 cell line was grown in McCoy’s medium, supplemented with 10% inactivated FBS, 2 mM glutamine and standard concentration of antibiotics. 7- to 8-week-old male CD1 nude athymic mice were purchased from Charles River and under pathogen-free conditions in accordance with European Directives no. 2010/63 and with Italian D.L. 26/2014. Mice were injected subcutaneously into the right flank with 4 × 10^6 of HCT116 cells; tumor volume (mm^3) was evaluated three times a week by caliper using the formula Dmax x dmin^^2/2, where ‘d’ and ‘D’ are the shortest and the longest diameters, respectively. For all experiments, mice were randomly divided (n = 7) and intra-peritoneal injected by day five every day with: vehicle sesame oil/DMSO 6%; MC2884 10 mg/Kg in sesame oil/DMSO 6%. Mice were sacrificed after 20 days of drug treatment and tumors explanted for immunohistochemical analyses. For HCT116-DKO colon cancer, 6 × 10^6 cells were injected.
The biopsy specimens were fixed in 10% buffered-formalin and paraffin-embedded. Sections of […] were stained with haematoxylin-eosin, and haematoxylin-van Gieson. For immunohistochemistry, specimens were incubated in a microwave oven for 15 min in 10 mM buffered citrate pH 6.0 followed by the immunohistochemical procedure for Ki67 (Santa Cruz Biotechnology Inc., CA, USA), H3K27me3, H3K9/14ac (Diagenode). The conventional avidin-biotin complex procedure was applied according to manufacturer’s protocol (Dako Carpinteria, CA, USA) and incubated with secondary antibody. […] Slides were cover-slipped with a xylene-based mounting medium. Staining was scored as percentage of positive nuclei per high power field 10 × 40. Negative controls for each tissue section were performed omitting the primary antibody. Positive controls included in each experiment consisted of tissue previously shown to express the antigen of interest. TUNEL reaction was performed using the peroxidase-based Apoptag kit (Oncor, Gaithersburg, MD, US). TUNEL positive cells were detected with DAB and H2O2 according to the supplier’s instructions. The experiments were repeated on different sections for each specimen (two to four). For all immunohistochemical markers, 100 random fields (250×) per section were analysed (12.5 mm^2). Mann–Whitney and Wilcoxon tests were used to assess the relationship between ordinal data. Two-tailed P value was considered significant when ≤ 0.05. SPSS software (version 10.00, SPSS, Chicago, IL, USA) was used for statistical analysis.

[5] = molecular target: T3, CYP2D6 (Homo sapiens, UniProt P10635); assay: Cytochrome P450 inhibition, CYP2D6; format: in vitro ADME; conditions: human liver microsomes, probe dextromethorphan
T3 construct: liver microsomes (0.5 mg/mL) and NADPH (1 mM) in; from tissue; host or cells: human liver microsomes
T3 sequence (P10635 whole entry): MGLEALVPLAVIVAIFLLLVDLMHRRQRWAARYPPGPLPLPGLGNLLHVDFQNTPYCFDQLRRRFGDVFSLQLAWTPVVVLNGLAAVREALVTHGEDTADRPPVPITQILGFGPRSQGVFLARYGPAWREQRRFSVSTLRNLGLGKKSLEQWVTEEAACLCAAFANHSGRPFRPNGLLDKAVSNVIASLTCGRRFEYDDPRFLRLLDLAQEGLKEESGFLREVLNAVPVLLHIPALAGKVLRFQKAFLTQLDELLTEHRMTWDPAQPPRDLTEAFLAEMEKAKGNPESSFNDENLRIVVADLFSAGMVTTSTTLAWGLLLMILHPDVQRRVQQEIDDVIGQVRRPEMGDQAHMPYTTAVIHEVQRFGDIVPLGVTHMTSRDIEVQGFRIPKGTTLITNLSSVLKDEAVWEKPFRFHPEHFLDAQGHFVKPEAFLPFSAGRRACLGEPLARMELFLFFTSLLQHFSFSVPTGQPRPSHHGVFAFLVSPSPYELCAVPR
Procedure: as §1, §2, §3

[6] = scored as percentage of positive nuclei

T1 sequence (P08684 whole entry): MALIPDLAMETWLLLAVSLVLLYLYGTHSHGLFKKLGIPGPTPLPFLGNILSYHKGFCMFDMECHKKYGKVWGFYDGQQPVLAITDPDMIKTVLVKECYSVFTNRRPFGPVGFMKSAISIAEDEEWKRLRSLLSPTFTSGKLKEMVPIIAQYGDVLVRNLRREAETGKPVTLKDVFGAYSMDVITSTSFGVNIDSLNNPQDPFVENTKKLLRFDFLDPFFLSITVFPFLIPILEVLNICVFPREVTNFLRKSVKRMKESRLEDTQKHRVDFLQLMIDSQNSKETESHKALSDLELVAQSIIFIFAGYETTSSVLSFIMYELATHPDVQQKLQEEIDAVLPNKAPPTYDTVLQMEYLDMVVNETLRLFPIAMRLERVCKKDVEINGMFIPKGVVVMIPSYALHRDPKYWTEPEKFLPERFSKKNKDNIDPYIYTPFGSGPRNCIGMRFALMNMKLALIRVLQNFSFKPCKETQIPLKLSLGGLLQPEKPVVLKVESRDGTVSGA

`O=C1/C(=C/c2cccc(Br)c2)CN(Cc2ccccc2)C/C1=C\c1cccc(Br)c1` [MC2884] was tested, and the “cytotoxic effect on endometrial stromal cells” value [1] was “insensitive”, the inhibition at 5 min, 25 µM [2] was 45% and the IC50 [3] was greater than 25 µM. For the same compound, the “apoptotic index (TUNEL)” value [4] was 35±4, the “H3 K9/14ac” value [4, 6] was 5±0.2 and the “H3 K27me3” value [4, 6] was 19±2. For the same compound, the “proliferation index (Ki67)” value [4, 6] was 6±0.5 and the IC50 [5] was greater than 25 µM.
